Test results taken from patent publication US12539292B2, “BRM targeting compounds and associated methods of use” (Arvinas Operations, Inc., priority 2018, dated 2026).

Biological target: T1, BRM (Homo sapiens, UniProt P51531)
T1 construct: In-Cell Western Screen of BRM Degradation in SW1573 Cells; endogenous in cells; host or cells: SW1573
Assay: In-cell Western screen of BRM degradation in SW1573 cells (Dmax and DC50)
Format: cell-based
Conditions: BRM degradation, SW1573 cells, Table 2D; for Dmax: read-out: **Dmax (%) (% degraded); for DC50: read-out: *DC50
Method in brief: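 Overnight compound treatment (18-20 h, final DMSO 0.1%) of SW1573 cells in DMEM with 10% FBS precedes fixation and in-cell Western staining with 800/680 nm dye-labelled secondaries. Plate images give DC50 and maximal degradation.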

T1 sequence (P51531 whole entry): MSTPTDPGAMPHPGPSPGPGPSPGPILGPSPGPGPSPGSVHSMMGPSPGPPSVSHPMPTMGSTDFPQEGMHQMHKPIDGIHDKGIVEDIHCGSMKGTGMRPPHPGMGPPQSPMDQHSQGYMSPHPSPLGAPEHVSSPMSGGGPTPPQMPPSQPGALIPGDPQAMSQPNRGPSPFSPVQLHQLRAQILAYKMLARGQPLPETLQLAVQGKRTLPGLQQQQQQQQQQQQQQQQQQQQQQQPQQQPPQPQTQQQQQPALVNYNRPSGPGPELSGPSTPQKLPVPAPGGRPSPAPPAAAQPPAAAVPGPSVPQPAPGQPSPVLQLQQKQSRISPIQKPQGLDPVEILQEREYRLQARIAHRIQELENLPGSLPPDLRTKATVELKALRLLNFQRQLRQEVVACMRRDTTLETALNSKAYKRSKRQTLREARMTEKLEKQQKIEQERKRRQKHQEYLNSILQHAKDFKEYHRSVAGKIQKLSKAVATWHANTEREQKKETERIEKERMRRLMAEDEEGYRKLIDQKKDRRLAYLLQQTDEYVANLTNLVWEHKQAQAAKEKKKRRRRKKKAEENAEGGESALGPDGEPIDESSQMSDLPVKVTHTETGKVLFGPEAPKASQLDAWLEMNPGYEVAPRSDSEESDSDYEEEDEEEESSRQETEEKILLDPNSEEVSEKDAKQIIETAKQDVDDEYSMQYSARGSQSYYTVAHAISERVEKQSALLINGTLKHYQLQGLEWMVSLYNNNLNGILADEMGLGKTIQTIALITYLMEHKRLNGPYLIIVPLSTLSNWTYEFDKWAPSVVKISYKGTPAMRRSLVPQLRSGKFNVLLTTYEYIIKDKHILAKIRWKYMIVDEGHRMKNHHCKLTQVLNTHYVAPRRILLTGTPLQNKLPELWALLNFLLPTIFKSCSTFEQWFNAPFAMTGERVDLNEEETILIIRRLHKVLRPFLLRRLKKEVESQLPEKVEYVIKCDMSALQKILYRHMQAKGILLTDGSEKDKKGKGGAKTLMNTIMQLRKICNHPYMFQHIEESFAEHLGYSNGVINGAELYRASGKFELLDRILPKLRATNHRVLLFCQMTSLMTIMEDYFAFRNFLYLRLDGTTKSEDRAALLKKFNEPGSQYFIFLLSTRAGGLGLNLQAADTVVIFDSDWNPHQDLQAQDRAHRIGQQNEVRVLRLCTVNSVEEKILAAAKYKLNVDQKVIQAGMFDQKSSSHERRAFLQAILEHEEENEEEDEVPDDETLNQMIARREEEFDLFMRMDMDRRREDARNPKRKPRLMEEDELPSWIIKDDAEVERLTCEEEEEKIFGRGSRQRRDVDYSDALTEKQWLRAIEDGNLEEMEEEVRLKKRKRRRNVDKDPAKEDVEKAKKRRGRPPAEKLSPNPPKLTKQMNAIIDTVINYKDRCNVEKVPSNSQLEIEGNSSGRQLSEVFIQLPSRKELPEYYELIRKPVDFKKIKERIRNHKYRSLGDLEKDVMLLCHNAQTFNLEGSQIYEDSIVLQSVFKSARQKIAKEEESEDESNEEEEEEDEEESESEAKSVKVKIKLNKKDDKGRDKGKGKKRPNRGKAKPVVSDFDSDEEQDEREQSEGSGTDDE

| Compound | Dmax [%] | DC50 [nM] |
| --- | --- | --- |
| Cc1ncsc1-c1cc(F)c([C@H](C)NC(=O)[C@@H]2C[C@@H](O)CN2C(=O)[C@H](c2cc(OCCC3CCN(C[C@H]4C[C@H](Oc5cc(N6C7CCC6CN(c6cc(-c8ccccc8O)nnc6N)C7)ccn5)C4)CC3)no2)C(C)C)cc1F [compound 551, (2S,4R)-1-((2S)-2-(3-(2-(1-(((1r,3S)-3-((4-(3-(3-amino-6-(2-hydroxyphenyl)pyridazin-4-yl)-3,8-diazabicyclo[3.2.1]octan-8-yl)pyridin-2-yl)oxy)cyclobutyl)methyl)piperidin-4-yl)ethoxy)isoxazol-5-yl)-3-methylbutanoyl)-N-((S)-1-(2,5-difluoro-4-(4-methylthiazol-5-yl)phenyl)ethyl)-4-hydroxypyrrolidine-2-carboxamide] | > 75 | < 2.5 |
| Cc1ncsc1-c1cc(F)c([C@H](C)NC(=O)[C@@H]2C[C@@H](O)CN2C(=O)[C@@H](c2cc(OCCC3CCN(C[C@H]4C[C@H](Oc5cc(N6C7CCC6CN(c6cc(-c8ccccc8O)nnc6N)C7)ccn5)C4)CC3)no2)C(C)C)cc1F [compound 552, (2S,4R)-1-((2R)-2-(3-(2-(1-(((1r,3R)-3-((4-(3-(3-amino-6-(2-hydroxyphenyl)pyridazin-4-yl)-3,8-diazabicyclo[3.2.1]octan-8-yl)pyridin-2-yl)oxy)cyclobutyl)methyl)piperidin-4-yl)ethoxy)isoxazol-5-yl)-3-methylbutanoyl)-N-((S)-1-(2,5-difluoro-4-(4-methylthiazol-5-yl)phenyl)ethyl)-4-hydroxypyrrolidine-2-carboxamide] | > 75 | < 2.5 |
| Cc1nccn1-c1ccc([C@H](C)NC(=O)[C@@H]2C[C@@H](O)CN2C(=O)[C@@H](c2cc(OCCN3CCN(CCOc4cc(N5C6CCC5CN(c5cc(-c7ccccc7O)nnc5N)C6)ccn4)C[C@@H]3C)no2)C(C)C)cc1 [compound 553, (2S,4R)-1-((2R)-2-(3-(2-((2S)-4-(2-((4-(3-(3-amino-6-(2-hydroxyphenyl)pyridazin-4-yl)-3,8-diazabicyclo[3.2.1]octan-8-yl)pyridin-2-yl)oxy)ethyl)-2-methylpiperazin-1-yl)ethoxy)isoxazol-5-yl)-3-methylbutanoyl)-4-hydroxy-N-((S)-1-(4-(2-methyl-1H-imidazol-1-yl)phenyl)ethyl) pyrrolidine-2-carboxamide] | > 75 | < 2.5 |
| Cc1ncsc1-c1ccc([C@H](C)NC(=O)[C@@H]2C[C@@H](O)CN2C(=O)[C@@H](c2cc(OCCN3CCC(CCOc4cc(N5C6CCC5CN(c5cc(-c7ccccc7O)nnc5N)C6)ccn4)CC3)no2)C(C)C)cc1 [compound 554, (2S,4R)-1-((2R)-2-(3-(2-(4-(2-((4-(3-(3-amino-6-(2-hydroxyphenyl)pyridazin-4-yl)-3,8-diazabicyclo[3.2.1]octan-8-yl)pyridin-2-yl)oxy)ethyl)piperidin-1-yl)ethoxy)isoxazol-5-yl)-3-methylbutanoyl)-4-hydroxy-N-((S)-1-(4-(4-methylthiazol-5-yl)phenyl)ethyl)pyrrolidine-2-carboxamide] | > 75 | < 2.5 |
| Cc1ncsc1-c1ccc([C@H](CCCC(N)=O)NC(=O)[C@@H]2C[C@@H](O)CN2C(=O)[C@H](c2cc(OCCN3CCC(O[C@H]4C[C@H](Oc5cc(N6C7CCC6CN(c6cc(-c8ccccc8O)nnc6N)C7)ccn5)C4)CC3)no2)C(C)C)cc1 [compound 555, (2S,4R)-N-((S)-5-amino-1-(4-(4-methylthiazol-5-yl)phenyl)-5-oxopentyl)-1-((2S)-2-(3-(2-(4-((1r,3S)-3-((4-(3-(3-amino-6-(2-hydroxyphenyl)pyridazin-4-yl)-3,8-diazabicyclo[3.2.1]octan-8-yl)pyridin-2-yl)oxy)cyclobutoxy)piperidin-1-yl)ethoxy)isoxazol-5-yl)-3-methylbutanoyl)-4-hydroxypyrrolidine-2-carboxamide] |  | > 30 |
